Experimental data: article PMC7827406, “Structure–Activity Relationship (SAR) Study of Spautin-1 to Entail the Discovery of Novel NEK4 Inhibitors” (International Journal of Molecular Sciences, 2021)
Where two headings read alike, the source gives them in different places.

Tests used:
Assay in all cases: biochemical
Design in all cases: Eurofins KinaseProfiler full panel at Km ATP, residual kinase activity (%) relative to DMSO
[1] = biological target: T1, Aurora-B(h) (Homo sapiens, UniProt Q96GD4)
T1 construct: gene AURKB
Outline: (§1)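 Two 10 µM single-concentration screens were run: a competition-binding screen, in which DNA-tagged kinase bound to immobilized ligands was quantified by qPCR, and a radiometric activity panel at Km ATP. Each is expressed as residual kinase activity (%).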

[2] = biological target: T2, CDK5/p25(h) (Homo sapiens, UniProt Q00535)
T2 construct: p25
Outline: as §1

[3] = biological target: T3, Flt3(h) (Homo sapiens, UniProt P36888)
T3 sequence (P36888 1-993): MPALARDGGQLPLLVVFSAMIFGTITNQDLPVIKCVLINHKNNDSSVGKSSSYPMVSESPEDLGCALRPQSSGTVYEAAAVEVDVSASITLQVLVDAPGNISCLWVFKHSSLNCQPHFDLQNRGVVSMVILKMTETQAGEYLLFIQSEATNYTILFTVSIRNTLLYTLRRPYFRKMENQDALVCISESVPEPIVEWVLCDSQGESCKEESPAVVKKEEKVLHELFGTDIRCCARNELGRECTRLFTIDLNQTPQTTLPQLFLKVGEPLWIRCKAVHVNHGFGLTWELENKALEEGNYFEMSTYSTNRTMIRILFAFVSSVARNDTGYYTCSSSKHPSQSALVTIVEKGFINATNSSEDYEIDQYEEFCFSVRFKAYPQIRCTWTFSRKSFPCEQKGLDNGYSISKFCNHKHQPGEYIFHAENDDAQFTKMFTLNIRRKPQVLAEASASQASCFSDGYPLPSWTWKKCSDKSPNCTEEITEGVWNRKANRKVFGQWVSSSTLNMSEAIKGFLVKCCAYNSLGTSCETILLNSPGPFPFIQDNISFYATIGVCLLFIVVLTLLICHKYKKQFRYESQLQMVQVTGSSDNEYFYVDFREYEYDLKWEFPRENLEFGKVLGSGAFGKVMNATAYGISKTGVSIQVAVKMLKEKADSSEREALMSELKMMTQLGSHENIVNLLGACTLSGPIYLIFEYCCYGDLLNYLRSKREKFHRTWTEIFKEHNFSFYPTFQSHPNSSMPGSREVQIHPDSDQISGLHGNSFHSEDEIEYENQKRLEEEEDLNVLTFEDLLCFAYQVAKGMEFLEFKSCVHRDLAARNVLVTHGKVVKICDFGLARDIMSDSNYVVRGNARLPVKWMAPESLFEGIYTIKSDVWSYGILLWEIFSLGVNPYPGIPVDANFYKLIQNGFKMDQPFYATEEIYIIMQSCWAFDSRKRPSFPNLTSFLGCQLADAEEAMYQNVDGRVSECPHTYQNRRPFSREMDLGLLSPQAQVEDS
Outline: as §1

[4] = biological target: T4, ICK(h) (Homo sapiens, UniProt Q9UPZ9)
T4 construct: gene CILK1
T4 sequence (Q9UPZ9 1-632): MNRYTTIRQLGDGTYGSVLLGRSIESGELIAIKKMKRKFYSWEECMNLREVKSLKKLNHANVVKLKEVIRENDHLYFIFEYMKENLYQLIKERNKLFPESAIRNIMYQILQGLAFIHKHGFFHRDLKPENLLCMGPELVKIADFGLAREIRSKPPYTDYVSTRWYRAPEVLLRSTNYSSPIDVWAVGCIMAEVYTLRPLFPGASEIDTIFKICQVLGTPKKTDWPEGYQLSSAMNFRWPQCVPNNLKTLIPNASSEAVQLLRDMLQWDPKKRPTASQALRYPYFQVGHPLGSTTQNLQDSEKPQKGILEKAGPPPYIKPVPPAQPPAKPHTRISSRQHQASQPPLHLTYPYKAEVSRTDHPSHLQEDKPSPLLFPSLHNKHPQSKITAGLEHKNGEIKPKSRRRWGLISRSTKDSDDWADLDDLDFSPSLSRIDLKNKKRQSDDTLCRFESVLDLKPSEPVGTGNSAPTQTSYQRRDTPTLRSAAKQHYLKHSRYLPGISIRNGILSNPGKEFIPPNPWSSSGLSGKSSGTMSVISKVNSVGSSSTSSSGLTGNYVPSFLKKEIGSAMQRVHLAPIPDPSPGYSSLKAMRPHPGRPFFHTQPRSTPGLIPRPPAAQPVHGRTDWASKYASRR
Outline: as §1

[5] = biological target: TLK2(h) (Homo sapiens, UniProt Q86UE8)
Outline: as §1

[6] = biological target: T5, cKit(h) (Homo sapiens, UniProt P10721)
T5 construct: gene KIT
Outline: as §1

[7] = read-out: Residual activity (%) 5at
[8] = read-out: Residual activity (%) 5as
[9] = read-out: Residual activity (%) 5ay
[10] = read-out: Residual activity (%) Spautin-1 5aa

T2 sequence (Q00535 whole entry): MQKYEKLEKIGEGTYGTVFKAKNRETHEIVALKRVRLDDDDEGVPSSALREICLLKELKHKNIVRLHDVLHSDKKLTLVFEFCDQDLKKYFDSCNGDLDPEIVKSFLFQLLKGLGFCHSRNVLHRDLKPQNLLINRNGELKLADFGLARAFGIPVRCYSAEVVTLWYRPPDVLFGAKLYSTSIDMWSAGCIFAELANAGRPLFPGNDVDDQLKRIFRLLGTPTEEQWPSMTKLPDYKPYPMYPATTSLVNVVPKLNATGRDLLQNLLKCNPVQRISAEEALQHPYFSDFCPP
T2 sequence (Q15078 whole entry partner): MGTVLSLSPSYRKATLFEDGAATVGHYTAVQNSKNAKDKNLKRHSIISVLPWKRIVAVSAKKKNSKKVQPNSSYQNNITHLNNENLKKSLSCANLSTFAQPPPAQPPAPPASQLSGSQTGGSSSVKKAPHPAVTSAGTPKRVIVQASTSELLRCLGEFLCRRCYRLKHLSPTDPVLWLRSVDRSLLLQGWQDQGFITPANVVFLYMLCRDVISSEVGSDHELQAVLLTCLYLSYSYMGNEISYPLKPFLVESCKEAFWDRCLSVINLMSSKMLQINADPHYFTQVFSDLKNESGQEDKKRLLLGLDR
T5 sequence (P10721 whole entry): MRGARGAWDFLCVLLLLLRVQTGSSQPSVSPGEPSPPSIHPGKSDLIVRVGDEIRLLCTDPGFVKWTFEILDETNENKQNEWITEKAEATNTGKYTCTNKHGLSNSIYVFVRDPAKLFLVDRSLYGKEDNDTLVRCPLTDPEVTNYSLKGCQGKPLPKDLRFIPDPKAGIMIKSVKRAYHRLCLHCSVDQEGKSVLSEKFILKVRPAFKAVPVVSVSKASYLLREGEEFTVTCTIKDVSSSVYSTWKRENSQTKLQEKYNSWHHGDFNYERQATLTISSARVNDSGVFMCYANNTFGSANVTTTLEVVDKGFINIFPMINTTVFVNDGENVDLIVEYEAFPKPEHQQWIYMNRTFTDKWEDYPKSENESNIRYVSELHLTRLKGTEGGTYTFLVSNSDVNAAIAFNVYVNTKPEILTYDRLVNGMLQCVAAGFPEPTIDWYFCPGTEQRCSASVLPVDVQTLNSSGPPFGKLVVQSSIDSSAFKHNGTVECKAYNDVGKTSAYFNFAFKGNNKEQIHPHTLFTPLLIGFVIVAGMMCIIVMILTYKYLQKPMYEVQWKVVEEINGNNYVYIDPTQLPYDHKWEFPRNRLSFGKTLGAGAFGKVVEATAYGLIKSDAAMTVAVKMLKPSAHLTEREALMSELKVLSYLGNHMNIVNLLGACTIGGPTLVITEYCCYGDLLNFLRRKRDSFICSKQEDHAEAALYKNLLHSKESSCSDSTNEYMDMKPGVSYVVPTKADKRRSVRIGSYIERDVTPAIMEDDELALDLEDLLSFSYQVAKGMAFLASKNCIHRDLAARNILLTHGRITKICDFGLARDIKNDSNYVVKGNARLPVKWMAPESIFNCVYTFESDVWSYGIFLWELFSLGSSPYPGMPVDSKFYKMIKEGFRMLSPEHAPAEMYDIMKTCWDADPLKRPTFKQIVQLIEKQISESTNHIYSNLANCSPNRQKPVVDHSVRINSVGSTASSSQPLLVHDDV
Sequence of TLK2(h) (Q86UE8 whole entry): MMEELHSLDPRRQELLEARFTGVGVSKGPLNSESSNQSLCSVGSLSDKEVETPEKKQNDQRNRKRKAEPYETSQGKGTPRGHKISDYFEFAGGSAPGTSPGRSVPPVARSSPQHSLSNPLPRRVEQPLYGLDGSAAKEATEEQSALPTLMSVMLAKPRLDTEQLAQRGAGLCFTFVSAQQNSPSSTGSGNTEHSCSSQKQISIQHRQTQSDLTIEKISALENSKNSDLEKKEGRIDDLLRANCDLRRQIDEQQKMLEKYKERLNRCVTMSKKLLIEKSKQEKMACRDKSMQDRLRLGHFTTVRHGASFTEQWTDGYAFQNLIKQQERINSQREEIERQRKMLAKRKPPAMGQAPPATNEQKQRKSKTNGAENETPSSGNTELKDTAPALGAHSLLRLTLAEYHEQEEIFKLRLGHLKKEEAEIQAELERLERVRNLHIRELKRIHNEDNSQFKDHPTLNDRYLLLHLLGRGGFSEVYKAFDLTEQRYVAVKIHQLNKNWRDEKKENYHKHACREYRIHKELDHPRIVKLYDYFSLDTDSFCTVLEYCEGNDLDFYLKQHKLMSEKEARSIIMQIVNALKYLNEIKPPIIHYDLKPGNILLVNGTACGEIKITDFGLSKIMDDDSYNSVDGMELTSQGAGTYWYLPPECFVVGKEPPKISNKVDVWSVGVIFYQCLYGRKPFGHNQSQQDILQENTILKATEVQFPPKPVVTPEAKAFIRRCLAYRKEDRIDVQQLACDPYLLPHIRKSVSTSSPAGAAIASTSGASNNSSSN
T1 sequence (Q96GD4 whole entry): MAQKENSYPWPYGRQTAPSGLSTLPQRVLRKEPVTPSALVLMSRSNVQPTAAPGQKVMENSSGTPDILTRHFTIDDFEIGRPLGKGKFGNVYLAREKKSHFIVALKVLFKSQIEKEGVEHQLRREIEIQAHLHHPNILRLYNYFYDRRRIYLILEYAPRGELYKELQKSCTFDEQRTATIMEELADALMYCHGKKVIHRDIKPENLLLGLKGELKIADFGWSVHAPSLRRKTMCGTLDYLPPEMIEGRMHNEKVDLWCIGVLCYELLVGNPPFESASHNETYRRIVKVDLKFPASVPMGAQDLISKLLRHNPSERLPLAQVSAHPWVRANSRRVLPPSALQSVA

**Q.** Which remaining activity at 10 µM [1, 7] does the source give for `Fc1ccc2ncnc(NCCc3ccc(Cl)cc3)c2c1` [5at, N-[2-(4-Chlorophenyl)Ethyl]-6-Fluoro-4-Quinazolinamine] here?
**A.** 48%

**Q.** What about the remaining activity at 10 µM [2, 7] of the same molecule?
**A.** 86%

**Q.** And the remaining activity at 10 µM [3, 7]?
**A.** 62%

**Q.** And the remaining activity at 10 µM [4, 7]?
**A.** 88%

**Q.** And the remaining activity at 10 µM [5, 7]?
**A.** 103%

**Q.** What about the remaining activity at 10 µM [6, 7] of the same molecule?
**A.** 71%

**Q.** `Fc1ccc(CCNc2ncnc3ccc(F)cc23)cc1` [5as, 6-Fluoro-N-[2-(4-Fluorophenyl)Ethyl]-4-Quinazolinamine] was tested. Which remaining activity at 10 µM [1, 8] did it give?
**A.** 69%

**Q.** And the remaining activity at 10 µM [2, 8]?
**A.** 89%

**Q.** And the remaining activity at 10 µM [3, 8]?
**A.** 73%

**Q.** And the remaining activity at 10 µM [4, 8]?
**A.** 90%

**Q.** And the remaining activity at 10 µM [5, 8]?
**A.** 98%

**Q.** What about the remaining activity at 10 µM [6, 8] of the same molecule?
**A.** 78%

**Q.** Which results are given for `COc1ccc2ncnc(Nc3cccc(F)c3)c2c1` [5ay, N-(3-Fluorophenyl)-6-Methoxy-4-Quinazolinamine]?
**A.** remaining activity at 10 µM [1, 9]: 59%; remaining activity at 10 µM [2, 9]: 80%; remaining activity at 10 µM [3, 9]: 70%; remaining activity at 10 µM [4, 9]: 92%; remaining activity at 10 µM [5, 9]: 97%; remaining activity at 10 µM [6, 9]: 83%

**Q.** For `Fc1ccc(CNc2ncnc3ccc(F)cc23)cc1` [5aa, 6-Fluoro-N-(4-fluorobenzyl)-4-Quinazolinamine], which remaining activity at 10 µM [1, 10] is on record?
**A.** 85%

**Q.** And the remaining activity at 10 µM [2, 10]?
**A.** 73%

**Q.** What about the remaining activity at 10 µM [3, 10] of the same molecule?
**A.** 71%

**Q.** What about the remaining activity at 10 µM [4, 10] of the same molecule?
**A.** 97%

**Q.** And the remaining activity at 10 µM [5, 10]?
**A.** 99%

**Q.** What about the remaining activity at 10 µM [6, 10] of the same molecule?
**A.** 93%
